The values that follow are results of earlier work, collected in patent US10632087B2, “Famciclovir and meloxicam combination therapy for functional somatic syndromes” (INNOVATIVE MED CONCEPTS, LLC., priority 2012, dated 2020).

The test system of the data set is fibromyalgia patients. The note with it: valacyclovir alone; not recommended as therapy for fibromyalgia.

With `CC(C)[C@H](N)C(=O)OCCOCn1cnc2c(=O)[nH]c(N)nc21` [valacyclovir], the “treatment of fibromyalgia patients” value was “not successful”.
